From patent US12433549B1, “Molecular imaging of the cochlea” (University of South Florida, priority 2023, dated 2025) come the findings set out here.

A short description of series [1]: Ex vivo SPECT-CT imaging and radioactivity measurements (gamma spectroscopy) of dissected cochleae and body tissues. In kind it is in vivo, CBA/CaJ mice. The protocol:
For further confirmation, a pair of cochleae from a single mouse were dissected and ex vivo measurements (SPECT-CT image and radioactivity measurements-gamma spectroscopy) were carried out. […] Mean intensity and total photons were calculated from both the cochleae SPECT images. […] Moreover, energy spectra were measured using a BioDEx ion chamber and both cochleae had the same spectra, with the peak energy around 68 KeV—same as ^201Tl energy peak (FIG. 6e). These ex vivo measurements further confirm the equal distribution of ^201Tl for both inner ears.
In addition, the radiation signal was measured from various body parts, in comparison to the cochlea. The measurements were calculated per gm of tissue (specific activity) to make comparisons among various tissues and specific activities were further normalized with brain specific activity.
At the end of the imaging session, animals were sacrificed and ex vivo experiments were carried out in which radiation signals were measured from various body regions, including the brain and cochlea. A pair of cochleae were dissected and ex vivo measurements were done using both SPECT-CT imaging as well as radioactivity measurements (BioDex 500 ion chamber; gamma spectroscopy). Images were reconstructed from SPECT-CT data as per the same algorithms and protocols used for the in-vivo experiments.

Series [2] in a line: In vivo SPECT-CT imaging after intravenous tail vein injection of 201Tl. Also on record: species or system CBA/CaJ mice. The protocol:
To test whether or not 201Tl can pass through the cochlear intrastrial fluid blood barrier, so as to image K^+ in a bony structure like the cochlea using SPECT techniques, in vivo experiments were performed with CBA/CaJ mice. Young adult mice were injected with TlCl radioactive solution intravenously with a dose of ˜400 μCi/animal in the tail vein. The Siemens Inveon® multimodality microPET/SPECT/CT platform was used (mouse brain pinhole collimator with a total of 12 projections) to image the brain, cochlea and whole body. CT imaging was also carried out for anatomical referencing. […] One animal was imaged for five continuous days, and as expected, the SPECT signal decreased over that time period in the cochlea and other body parts.
The region of interest (ROI) was drawn for the cochlea using anatomical images from the CT scans. Similarly, radiation signals (mean image intensity) from the two sides (left and right cochleae) were equal (FIG. 4b), indicating symmetrical absorption of the ^201Tl for the peripheral auditory system (cochlea). […] This observation (^201Tl maximum accumulation in the kidney) was consistent with the reported literature as ^201Tl is known to maximally accumulate there 17,18
After baseline phantom in vitro experiments were completed, in vivo imaging experiments were conducted using young adult CBA/CaJ mice (2-3 months old, n=6, 3 females and 3 males) to determine whether 201Tl can pass through the cochlear intrastrial fluid/blood barrier and if the bony cochlea can be imaged using SPECT. Each mouse was injected with approximately 400 μCi ^201Tl radiation into tail veins through a catheter. Similar to the in vitro phantom experiments, a total of 12 projections over a 360 arc were used to collect the images. During the imaging data collection, animals were under gas anesthesia (1-2% isoflurane) in an air-warmed imaging chamber (Harvard Apparatus, Cambridge, MA) to keep body temperature constant at 37° C., and the breathing rate and pattern were continuously monitored. For anatomical referencing of the cochlea, CT imaging was also conducted in conjunction with SPECT. The region of Interest (ROI) was drawn with the help of the CT referencing. Images were reconstructed using maximum-likely-hood expectation maximization (MLEM) algorithm, and finally, 3-D images were reconstructed with scattering and attenuation corrections.

Turning to `[Cl][201Tl]` [^201Tl, Thallium-201], the “Mean intensity and total photons, cochlea 1 vs cochlea 2” value in series [1] (ex vivo SPECT-CT of a dissected pair of cochleae from a single mouse) is on record as “no quantitative difference”. Also, the “Specific activity (per gm of tissue, normalized to brain) of the cochlea compared with other body parts” value in series [1] (ex vivo radioactivity measurements) is recorded as “highest signal among most body parts, except kidney”. The “Cochlear radioactivity signal relative to brain” value in series [1] (ex vivo, gamma spectroscopy of body tissues) came out at 2.2 times. The “Sex difference in cochlear SPECT signal (mean image intensity)” value in series [2] (3 males vs 3 females) is “no sex difference”. For the same molecule, the “Time after injection at which SPECT radiation signals were observed from the cochlea” value in series [2] (first scan after i.v. injection) is listed as “within minutes”. Moreover, the “Radiation signals (mean image intensity), left vs right cochleae” value in series [2] (in vivo SPECT) is listed as “equal”. Moreover, in series [2] (in vivo SPECT, ROI drawn with CT, ~400 μCi/animal i.v. tail vein), the “Average cochlear SPECT signal relative to brain signal” value was “about two”. Moreover, the “Entry of the radiotracer into the bony cochlea” value in series [2] (in vivo SPECT-CT of mouse cochlea) was “can enter the bony cochlea”. The “Change of SPECT signal in the cochlea and other body parts over time” value in series [2] (one animal imaged for five continuous days) is reported as “decreased”. The “Site of maximum accumulation, whole body SPECT imaging” value in series [2] (whole body SPECT, ~400 μCi/animal i.v.) is on record as “kidney”.
